These results are taken from US12544357B2, “Compositions and methods for the treatment of Plasmodium falciparum malaria” (priority 2021, dated 2026).

Where two headings read alike, the source gives them in different places.

One data set deals with BeWo cells. Kind of data set: BeWo crystal violet viability assay. The format is cell-based, human. The method, then: BeWo, a human choriocarcinoma cell line, were grown in the presence of increasing concentrations of ID #9081579 or vehicle alone and cell concentration was measured using a crystal violet viability assay performed 48 hours after addition of drug. Points represent the mean of three independent technical replicates. Bars represent SD.
BeWo cells are a human placental cell line that originates from a choriocarcinoma.^31 These cells have been used widely as an in vitro model to study placental uptake of a variety of nutrients including glucose, amino acids, and iron. BeWo choriocarcinoma cells were grown in the presence of increasing concentrations of compound ID #9081579 or vehicle alone. Cell concentration was measured using a crystal violet viability assay performed 48 hours after addition of drug.

Data set [1] has as its system P. falciparum 3D7 strain parasites. Kind of data set: NSG/P. falciparum humanized mouse model, 3D7. The class given is in vivo, Plasmodium falciparum. The settings on record: 100 mg/kg IP every 8 hours for 4 days, Pf3D7. The method, then:
Drugs were evaluated in the NSG/P. falciparum humanized mouse model. Mice were reconstituted with human RBC, infected with P. falciparum 3D7 strain parasites and treated with drug or vehicle control (100 mg/kg dosed IP every 8 hours for 4 days). Parasitemia was monitored by microscopy. Results representative of two independent experiments.
The NSG mouse (NOD scid gamma mouse) is a brand of immunodeficient laboratory mice, which carries the strain non-obese diabetic (NOD). The efficacy of both lead compounds ID #9081579 and ID #9078424 were evaluated in the NSG/P. falciparum humanized mouse model.^32,33,34,35
Briefly, NSG mice (NOD.Cg-Prkdc^scidII2rg^tm1Wjl/SzJ; JAX Cat #005557) were reconstituted with human RBC (huRBC) by daily IP injections with 1 mL of huRBC at 50% hematocrit. On day 12, mice were infected with of 2×10^7 Pf3D7 infected huRBCs via tail vein injection. On day 15, mice were injected IP with ID #9081579 or ID #9078424 at 100 mg/kg final dose (approximately 2 mg per mouse in 5% DMSO/95% PEG400 vehicle) or vehicle alone. Mice were treated with drug or vehicle control every 8 hours for 4 days. This dose and schedule was designed to maintain plasma drug levels above 50 μM, as informed by our single dose PK study in Example 5.

The test system of data set [2] is 3D7 PfGARP KO parasites. Description: parasite killing assay, 3D7 PfGARP KO, pLDH readout. The class given is cell-based, Plasmodium falciparum. The settings on record: 48 hours. The method, then:
(§1) P. falciparum strain 3D7 (Panels A and C) or 3D7 PfGARP KO (Panel B) parasites were synchronized to the ring stage and incubated with a dilution series of compound or media control for 48 hours followed by quantification of parasitemia by pLDH assay.
(§2) A limited structure-activity relationship (SAR) study was then conducted, evaluating 48 analog compounds having the same backbone (black in FIG. 3 inset and FIG. 4), but varying R groups (red) using P. falciparum strain 3D7 and 3D7 PfGARP KO parasites. For the SAR study, 3D7 or 3D7 PfGARP KO parasites were synchronized to the ring stage and incubated with a dilution series of compounds or media control for 48 hours followed by quantification of parasitemia by Plasmodium lactate dehydrogenase assay (pLDH) assay.^30 Each dilution was evaluated in quadruplicate. In all experiments, DMSO concentration was <0.1%.

In data set [3] the test system is P. falciparum strain 3D7 parasites. Kind of data set: parasite killing assay, P. falciparum 3D7, pLDH readout. The class given is cell-based, Plasmodium falciparum. The settings on record: ring stage, read-out: IC50. Here is the method: P. falciparum strain 3D7 parasites were synchronized to the ring stage and incubated with a dilution series of compound or media control for 48 hours followed by quantification of parasitemia by Plasmodium lactate dehydrogenase assay (pLDH) assay.
as §1, §2
The small molecule compounds shown in FIG. 4 were tested for their abilities to kill P. falciparum strain 3D7 parasites.

A further data set concerns Human WBC (CD45+). Description: human WBC viability by 7AAD/annexin V flow cytometry. The class given is cell-based. Here is the method:
Cells were stained with 7AAD and annexin V and analyzed by flow cytometry to assess viability (7AAD−, annexin V−), necrosis (7AAD+, annexin V−), early apoptosis (7AAD−, annexin V+), and late apoptosis (7AAD+, annexin V+).
Human WBC (CD45+) were incubated in the presence of increasing concentrations of compound ID #9081579 or vehicle alone for 48 hours. Cells were stained with 7AAD and annexin V and analyzed by flow cytometry to assess viability (7AAD−, annexin V−), necrosis (7AAD+, annexin V−), early apoptosis (7AAD−, annexin V+), and late apoptosis (7AAD+, annexin V+).

Data set [4] has as its system P. falciparum 3D7^0087/N9 strain parasites. Description: NSG/P. falciparum humanized mouse model, adapted strain. The format is in vivo, Plasmodium falciparum. Particulars: 100 mg/kg IP every 8 hours for 4 days, adapted strain 3D70087/N9. The method, then:
ID #9081579 was evaluated in the NSG/P. falciparum humanized mouse model. Mice were reconstituted with human RBC, infected with P. falciparum 3D7^0087/N9 strain parasites and treated with drug or vehicle control (100 mg/kg dosed IP every 8 hours for 4 days). Parasitemia was monitored by microscopy.
Just prior to submission, we have repeated this experiment using ID #9081579 and an adapted parasite strain (3D70087/N9).

In another data set the test system is 3D7 parasites. Kind of data set: morphological effects on 3D7 parasites. The format is cell-based, Plasmodium falciparum. Particulars: 100 μM, 48 hours. The method, then: (§3) FIG. 6 illustrates the morphological changes that occur when compound ID #9081579 activates parasite apoptosis in P. falciparum strain 3D7 (Panel C), or 3D7 PfGARP KO (Panel B) incubated with 100 μM ID #9081579 (Panels A-B) or vehicle control (Panel A) for 48 hours.
(§4) To assess the morphological effects of compound ID #9081579, 3D7 or 3D7 PfGARP KO parasites were synchronized to the ring stage and incubated with 100 μM 9081579 or vehicle control for 48 hours. […] This induction of apoptosis is further supported by caspase activation and mitochondrial depolarization assays induced by compounds ID #9081579 and ID #9078424 (see FIG. 7).

A further data set concerns strain INDO. Description: parasite killing in chloroquine and quinine resistant strain INDO. The format is cell-based. The settings on record: Plasmodium falciparum.
For data set [5], the system named is 3D7 PfGARP KO parasites. Kind of data set: morphological effects on 3D7 PfGARP KO parasites. The class given is cell-based, Plasmodium falciparum. Particulars: 100 μM, 48 hours. The method, then: as §3, §4
For a further data set, the system named is P. falciparum parasites. Kind of data set: parasite apoptosis assays (JC-1, TUNEL, ApoStat staining). The format is cell-based, Plasmodium falciparum. The method, then:
as §4

The target of a further data set is PfGARP-A (Plasmodium falciparum, UniProt Q9U0N1). Kind of data set: surface plasmon resonance (SPR) binding on BiaCore100. The source says: Drugs were immobilized to a CM5 sensorchip and probed with varying concentrations of full length PfGARP on a BiaCore100.
PfGARP-A, sequence (Q9U0N1 entry or part of it): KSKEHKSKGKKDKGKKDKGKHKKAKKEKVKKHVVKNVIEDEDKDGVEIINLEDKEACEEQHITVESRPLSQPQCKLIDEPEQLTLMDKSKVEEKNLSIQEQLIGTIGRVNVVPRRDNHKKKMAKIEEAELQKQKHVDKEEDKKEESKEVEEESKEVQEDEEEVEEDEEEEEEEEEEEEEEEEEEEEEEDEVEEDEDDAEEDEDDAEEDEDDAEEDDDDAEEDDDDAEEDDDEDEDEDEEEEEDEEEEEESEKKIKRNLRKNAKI
PfGARP-A was immobilized to a sensorchip and probed with varying concentrations of drug on a BiaCore100.
For orientation: SPR reads the build-up and loss of mass on a sensor chip optically.

[6] abbreviates: increasing concentrations, 48 hours.

On to `CSc1cccc(NC(=O)C(C)N(c2ccc3c(c2)OCCO3)S(C)(=O)=O)c1` (centres unmarked) [ID #9081579], for which the “highest non-toxic concentration relative to IC50 for parasites” value with BeWo cells (BeWo cells) amounted to 50 fold; with Human WBC (CD45+) (human WBC (CD45+)), 100 fold. Besides, the “concentration causing loss of viability (no loss up to highest concentration tested)” value in the data set with BeWo cells (BeWo cells, 48 hours, crystal violet) is over 200 µM; with Human WBC (CD45+) (human WBC (CD45+), 48 hours) it was over 400 µM. Further, the “growth of BeWo cells” value in the data set on BeWo cells (setting [6]) is given as “does not inhibit the growth of BeWo cells”. For the same compound, the figures for the parasitemia entry in data set [1] and in data set [4] were “no detectible parasitemia after three days of drug treatment” and “rapidly eliminated parasitemia”, respectively. Besides, the “parasite killing activity in PfGARP KO parasites” value in the data set on 3D7 PfGARP KO parasites [2] is “no activity”. Besides, the 50% inhibitory concentration (IC50) was 1.8 to 4.8 µM in data set [3] (Plasmodium falciparum, 3D7, 48 h); 1.88 µM in data set [3] (48 hours); 5 to 8 µM with strain INDO. Also, the “cytotoxicity to human white blood cells” value in the data set with Human WBC (CD45+) (setting [6]) is “not cytotoxic”. Further, the morphological changes result is reported as “dysmorphic, shrunken features with pyknotic nuclei” with 3D7 parasites and “not observed” in the data set with 3D7 PfGARP KO parasites [5]. Besides, the “parasite apoptosis (JC-1, TUNEL, ApoStat staining)” value in the data set on P. falciparum parasites was “activate parasite apoptosis”. Also, the SPR kinetics entry at PfGARP-A (FIG. 8 legend: drugs immobilized to CM5 sensorchip) is “fast on, slow off kinetics”; on PfGARP-A (PfGARP-A immobilized to sensorchip, probed with drug) it was “fast on/off kinetics”.

For orientation: IC50 means the midpoint of a concentration-inhibition curve.
